Source: US9580398B2, “Compounds, compositions, and methods for modulating ferroptosis and treating excitotoxic disorders” (The Trustees of Columbia University in the City of New York, priority 2012, dated 2017)

Each compound was assayed on HT-1080 cells (assay: Erastin-induced death in HT-1080 cells with co-treated inhibitors (viability, microscopy)). Details: HT-1080 and BJeLR cells; media with glucose and Gln; AOA 2 mM.
Format: cell-based, human
Procedure: (§1) Cell viability was typically assessed in 384-well format by Alamar Blue (Invitrogen) fluorescence (ex/em 530/590) measured on a Victor3 platereader (Perkin Elmer, Waltham, Mass.). In some experiments, Trypan Blue dye exclusion counting was performed using an automated cell counter (ViCell, Beckman-Coulter Inc., Brea, Calif.). Cell viability in test conditions is reported as a percentage relative to the negative control treatment.
Phase contrast images were acquired using an AMG EVOS FL (Advanced Microscopy Group) microscope equipped with a 10× phase-contrast objective. Three independent fields were acquired for each experimental condition. Representative samples from one field of view are shown.
For `NOCC(=O)O` [AOA, aminooxyacetic acid], the “effect on erastin-induced ferroptosis (glutamine metabolism modulators)” value (shortened to “effect on erastin-induced ferroptosis”) was “rescued”. In the case of `O=C(O)C(Cl)Cl` [DCA, dichloroacetic acid], the “effect on erastin-induced ferroptosis” value is reported as “had no effect”. For `COC(=O)CCC(=O)C(=O)OC` [DMK, dimethyl alphaketoglutarate], the “effect on erastin-induced ferroptosis” value was “lethality of erastin was restored”.

Same assay, conditions: HT-1080 cells
`CC(=O)OCOC(=O)CN(CC(=O)OCOC(C)=O)c1ccccc1OCCOc1ccccc1N(CC(=O)OCOC(C)=O)CC(=O)OCOC(C)=O` [BAPTA-AM] was tested, and the “effect of co-treatment on erastin-induced death” value (shortened to “effect of co-treatment”) was “had no effect on erastin-induced death”. `O=C(O)CN(CCOCCOCCN(CC(=O)O)CC(=O)O)CC(=O)O` [EGTA] was tested, and the “effect of co-treatment” value was “had no effect on erastin-induced death”. In the case of `Cc1ccc(N(CC(=O)O)CC(=O)O)c(OCCOc2cc3cc(-c4ncc(C(=O)O)o4)oc3cc2N(CC(=O)O)CC(=O)O)c1` [Fura-2], the “effect of co-treatment” value is reported as “had no effect on erastin-induced death”.

Same assay, conditions: HT-1080 cells; added up to 6 hours after erastin
In the case of `c1ccc(-c2ccccn2)nc1` [2,2-bipyridyl], the “protection from death on late addition” value is reported as “substantial protection from death”.

These compounds were tested on erastin (10 μM)-treated HT-1080 cells (assay: Inhibition of death in erastin (10 μM)-treated HT-1080 cells, viability by Alamar Blue). Details: Homo sapiens, HT-1080.
Format: cell-based, human
Procedure: as §1
Flow cytometry data was analyzed using FloJo (9.3.2, Tree Star, Inc., Ashland, Oreg.). Chemical structures were drawn using ChemDraw Ultra (Cambridgesoft, Cambridge, Mass.). Computational determination of log P (Slog P function) was performed using MOE 2010.10 (Chemical Computing Group, Montreal, […].). Viability data was analyzed using Excel (Microsoft Corp., […].). Summary data and heatmaps were generated using R. Dose-response curves were computed by 4-parameter logistic regression in Prism 5.0c (GraphPad Software). Images were manipulated using Photoshop CS4 and Illustrator CS4 (Adobe, San Jose, Calif.).
The ability of various compounds disclosed herein to inhibit death in erastin (10 μM)-treated HT-1080 cells were tested. Cell viability was assessed by Alamar Blue. EC50 values (nM) were computed from dose response curves.
In the case of `NCCOCCOC(=O)c1ccc(NC2CCCCC2)c(N)c1` [SRS8-43, 2-(2-aminoethoxy)ethyl 3-amino-4-(cyclohexylamino)benzoate], the EC50 is reported as 420 nM. For `Nc1ccccc1NC1CCCCC1` [SRS8-75, N1-cyclohexylbenzene-1,2-diamine], the EC50 was 330 nM.

Same assay, conditions: Homo sapiens, HT-1080, inhibition of death in erastin (10 μM)-treated HT-1080 cells; Alamar Blue; from dose response curves
For `CC(C)(C)OC(=O)CCOCCOC(=O)c1ccc(NC2CCCCC2)c(N)c1` [SRS8-37, 2-(2-(tert-butoxycarbonyl)ethoxy)ethyl 3-amino-4-(cyclohexylamino)benzoate], the EC50 was 160 nM. `CCOC(=O)c1ccc(NC2CCOCC2)c(N)c1` [SRS8-41, ethyl 3-amino-4-(tetrahydro-2H-pyran-4-ylamino)benzoate] showed an EC50 of 1450 nM. Compound `CCOC(=O)c1ccc(NN2CCN(C)CC2)c(N)c1` [SRS8-53, ethyl 3-amino-4-(4-methylpiperazin-1-ylamino)benzoate] has an EC50 of 3600 nM. `CCOC(=O)c1ccc(Cl)c(N)c1` [SRS8-62, ethyl 3-amino-4-chlorobenzoate] was tested, and the EC50 was greater than 10000 nM. For `CCOC(=O)c1ccc(NC2CCC2)c(N)c1` [SRS8-71, ethyl 3-amino-4-(cyclobutylamino)benzoate], the EC50 was 265 nM. `CCOC(=O)c1ccc(NC2CCCC2)c(N)c1` [SRS8-73, ethyl 3-amino-4-(cyclopentylamino)benzoate] was tested, and the EC50 was 120 nM. With `CCOC(=O)c1ccc(NC2CCNCC2)c(N)c1` [SRS8-81, ethyl 3-amino-4-(piperidin-4-ylamino)benzoate] the EC50 was 350 nM. `CCOC(=O)c1ccc(NC2CCCCCC2)c(N)c1` [SRS8-90, ethyl 3-amino-4-(cycloheptylamino)benzoate] gave an EC50 of 130 nM. Compound `CCOC(=O)c1ccc(NC2CCCCCCC2)c(C(=O)OC(C)(C)C)c1` [SRS8-91, ethyl 3-(tert-butoxycarbonyl)-4-(cyclooctylamino)benzoate] has an EC50 greater than 10000 nM. With `CCOC(=O)c1ccc(NC2CCC(C(C)(C)C)CC2)c(N)c1` (stereo not drawn) [SRS8-92, ethyl 3-amino-4-(4-tert-butylcyclohexylamino)benzoate] the EC50 was 42 nM. `CCOC(=O)c1ccc(NC2CCCCCCC2)c(N(C)C)c1` [SRS9-01, ethyl 4-(cyclooctylamino)-3-(dimethylamino)benzoate] was tested, and the EC50 was 3460 nM. `CCCCCCCCN(CCCCCCCC)c1ccc(C(=O)OCC)cc1N` [SRS12-12, ethyl 3-amino-4-(dioctylamino)benzoate] gave an EC50 greater than 10000 nM. `CCOC(=O)c1ccc(NC2CCCCC2)c(NCc2ccc([N+](=O)[O-])cc2)c1` [SRS12-36, ethyl 4-(cyclohexylamino)-3-((4-nitrobenzyl)amino)benzoate] showed an EC50 of 35 nM. `CCOC(=O)c1ccc(NC2CCCCC2)c(NCc2ccccn2)c1` [SRS12-46, ethyl 4-(cyclohexylamino)-3-(pyridin-2-ylmethylamino)-benzoate] showed an EC50 of 32 nM. `CCOC(=O)c1ccc(NC2CCCCC2)c(NCc2ccc3ccccc3c2)c1` [SRS12-51, ethyl 4-(cyclohexylamino)-3-(naphthalen-2-ylmethylamino)-benzoate] gave an EC50 of 56 nM. Compound `CCOC(=O)c1ccc(NC2CCCCC2)c(NCc2ccc(F)c(C#N)c2)c1` [SRS12-54, ethyl 3-(3-cyano-4-fluorobenzylamino)-4-(cyclohexylamino)-benzoate] has an EC50 of 158 nM. `CCOC(=O)c1ccc(NC2CCCCC2)c(NCc2cc(F)cc(F)c2)c1` [SRS12-59, ethyl 4-(cyclohexylamino)-3-(3,5-difluorobenzylamino)-benzoate] showed an EC50 of 95 nM. `CCOC(=O)c1ccc(NC2CCCCC2)c(NCc2ccc(C(=O)OC)cc2)c1` [SRS12-69, ethyl 4-(cyclohexylamino)-3-(4-(methoxycarbonyl)-benzylamino)benzoate] was tested, and the EC50 was 58 nM. In the case of `CCOC(=O)c1ccc(CNc2cc(C(=O)OCC)ccc2NC2CCCCC2)cc1` [SRS12-84, ethyl 4-(cyclohexylamino)-3-(4-(ethoxycarbonyl)benzylamino)-benzoate], the EC50 is reported as 52 nM. `CCOC(=O)c1ccc(NC2CCCCC2)c(NCc2cncnc2)c1` [SRS13-35, ethyl 4-(cyclohexylamino)-3-(pyrimidin-5-ylmethylamino)-benzoate] gave an EC50 of 27 nM. Work on `CCOC(=O)c1ccc(NC2CCC(C(C)(C)C)CC2)c(NCc2cncnc2)c1` (stereo not drawn) [SRS13-37, ethyl 4-(4-tert-butylcyclohexylamino)-3-(pyrimidin-5-ylmethylamino)benzoate] yielded an EC50 of 15 nM. With `CCOC(=O)c1cc(N)c(NC2CCCCC2)cc1F` [SRS14-55, ethyl 5-amino-4-(cyclohexylamino)-2-fluorobenzoate] the EC50 was 104 nM. Compound `CCOC(=O)c1cc(N)c(NC2CCCCC2)cc1Cl` [SRS14-57, ethyl 5-amino-2-chloro-4-(cyclohexylamino)benzoate] has an EC50 of 54 nM. `CCOC(=O)c1cc(N)c(NC2CCCCC2)cc1C` [SRS14-58, ethyl 5-amino-4-(cyclohexylamino)-2-methylbenzoate] was tested, and the EC50 was 28 nM. `CCOC(=O)c1cnc(NC2CCCCC2)c(N)c1` [SRS14-86, ethyl 5-amino-6-(cyclohexylamino)pyridine-3-carboxylate] was tested, and the EC50 was 544 nM. `CCOC(=O)c1cnc(NC2CCCCC2)c(NCc2ccccc2)c1` [SRS14-91, ethyl 5-(benzylamino)-6-(cyclohexylamino)pyridine-3-carboxylate] gave an EC50 of 48 nM. `CCOC(=O)c1cnc(NC2CCCCC2)c(NCc2ccncc2)c1` [SRS14-92, ethyl 6-(cyclohexylamino)-5-(pyridin-4-ylmethylamino)pyridine-3-carboxylate] showed an EC50 of 194 nM. With `CCOC(=O)c1cnc(NC2CCCCC2)c(NCc2ccncn2)c1` [SRS14-93, ethyl 6-(cyclohexylamino)-5-(pyrimidin-4 ylmethylamino)-pyridine-3-carboxylate] the EC50 was 1550 nM. Compound `CCOC(=O)c1ccc(NC2C3CC4CC(C3)CC2C4)c(N)c1` (stereo not drawn) [SRS15-17, ethyl 3-amino-4-(2-adamantylamino)benzoate] has an EC50 of 171 nM. Compound `CCOC(=O)c1ccc(NC23CC4CC(CC(C4)C2)C3)c(N)c1` [SRS15-18, ethyl 3-amino-4-(1-adamantylamino)benzoate] has an EC50 of 88 nM. Work on `CCOC(=O)c1ccc(NC2C3CC4CC(C3)CC2C4)c(NCc2ccccc2)c1` (stereo not drawn) [SRS15-20-mono, ethyl 3-(benzylamino)-4-(2-adamantylamino)benzoate] yielded an EC50 of 22 nM. `CCOC(=O)c1ccc(NC2C3CC4CC(C3)CC2C4)c(NCc2ccncc2)c1` (stereo not drawn) [SRS15-21, ethyl 4-(2-adamantylamino)-3-((pyridin-4-ylmethyl)amino)-benzoate] showed an EC50 of less than 5 nM. Compound `CCOC(=O)c1ccc(NC2C3CC4CC(C3)CC2C4)c(NCc2cncnc2)c1` (stereo not drawn) [SRS15-22, ethyl 4-(2-adamantylamino)-3-(pyrimidin-5-ylmethylamino)-benzoate] has an EC50 of 21 nM. `CCOC(=O)c1ccc(NC23CC4CC(CC(C4)C2)C3)c(NCc2ccncc2)c1` [SRS15-24, ethyl 4-(1-adamantylamino)-3-((pyridin-4-ylmethyl)amino)-benzoate] gave an EC50 of 9 nM. With `CCOC(=O)c1ccc(NC23CC4CC(CC(C4)C2)C3)c(NCc2cncnc2)c1` [SRS15-25, ethyl 4-(1-adamantylamino)-3-(pyrimidin-5-ylmethylamino)-benzoate] the EC50 was 54 nM.

Same assay, conditions: inhibition of death in erastin (10 μM)-treated HT-1080 cells; Alamar Blue; from dose response curves
Compound `CCOC(=O)c1ccc(NC2CCC(C(=O)OC(C)(C)C)CC2)c(N)c1` (stereo not drawn) [SRS8-46, ethyl 3-amino-4-(4-(tert-butoxycarbonyl)cyclohexylamino) benzoate] has an EC50 of 515 nM.
